Measured values reported in patent publication US20220105150A1, “AMPHIPATHIC ALPHA-HELICAL ANTIMICROBIAL PEPTIDES TREAT INFECTIONS BY GRAM-NEGATIVE PATHOGENS” (priority 2019, published 2022).
Converted amounts (≈) assume the structure as drawn. “And” between values parts separate entries of the source, which are not always exact repeats. Equal values may be shown once.

Columns and labels:
[1] = system: A. baumannii strain 649; format: cell-based, Acinetobacter baumannii; settings: for fold loss of antimicrobial activity in 25% human sera: 25% human sera versus no serum; for MIC 25% human serum: MH medium supplemented with 25% (v/v) human sera; for MIC No serum: MH medium
Protocol: Hemoglobin release was determined spectrophotometrically at 570 nm.
Because only unbound AMP is available to interact with the therapeutic target, the extent of binding between AMPs and serum proteins can have significant effects on efficacy of these drugs. […] This assay estimates the in vivo bioavailability of our AMPs. […] An increase in MIC in the presence of serum is attributed to inhibition of antimicrobial activity due to binding to serum proteins.

[2] = Helical structure by circular dichroism spectroscopy; format: physicochemical; settings: for Aqueous pH 7 [θ]222: 100 mM KCl, 50 mM Na2HPO4/NaH2PO4, pH 7.0; for Aqueous pH 7 [θ]222 / 50% TFE [θ]222: 222 nm; for 50% TFE [θ]222: aqueous buffer containing 50% trifluoroethanol; for Δ[Θ]222 TFE-aqueous: difference 50% TFE minus aqueous; for % Helix Induced: increase in molar ellipticity in the presence of 50% TFE; for Aqueous pH 7 % Helix: relative to molar ellipticity of the peptide in 50% TFE
[3] = system: Acinetobacter baumannii isolates resistant to classical antibiotics; format: cell-based; settings: for MICGM: geometric mean over 20 strains; for MIC 101887: strain 101887 (lower line); for MIC 961997: strain 961997 (lower line); for MIC 963618: strain 963618 (lower line); for MIC 964304: strain 964304 (lower line); for MIC 977751: strain 977751 (lower line); for MIC 981653: strain 981653 (lower line); for MIC 1002956: strain 1002956 (lower line); for MIC 1007660: strain 1007660 (lower line); for MIC 1010282: strain 1010282 (lower line); for MIC 1035166: strain 1035166 (lower line)
Excerpt: Thus, shortening the number of carbon atoms between the side-chain amino group and the α-carbon atom from four (Lys) to one (diaminopropionic acid) had very little effect on antibacterial activity (Table 2). We also determined the antibacterial activity of our five AMPs against 20 additional Acinetobacter baumannii isolates from four continents, 12 different countries and 17 different cities that were resistant to 18 different antibiotics. […] Thus, it is very clear that changing the type of positively-charged residue on the polar face of these AMPs had very little effect on the antibacterial activities.

[4] = system: Acinetobacter baumannii strains resistant to Polymyxin B and Colistin; settings: for MICGM: geometric mean of MIC values from seven strains resistant to Polymyxin B and Colistin; for MIC MB9941: strain MB9941; for MIC MB9941 / MIC MB9949 / MIC MB9951 / MIC MB9952 / MIC MB9953 / MIC MB9955 / MIC MB9963: Mueller-Hinton medium, 37° C., 24 h; for MIC MB9949: strain MB9949; for MIC MB9951: strain MB9951; for MIC MB9952: strain MB9952; for MIC MB9953: strain MB9953; for MIC MB9955: strain MB9955; for MIC MB9963: strain MB9963
[5] = system: human red blood cells; test: Hemolytic activity on human red blood cells; settings: for HC50: 50% hemolysis of human red blood cells after 18 h at 37° C.; for HC50 Fold Decrease: same peptide with and without specificity determinants
Protocol: For comparison, the inventors also determined the hemolytic activity after 18 hours at 37° C. Hemolysis can be determined with red blood cells (RBC) from various species including human red blood cells (hRBC).
The coupling procedure used 5 equivalents of Fmoc-D-amino acid or Fmoc-L-amino acid and HCTU (O-(1H-6-chlorobenzotriazole-1-yl)-1,1,3,3-tetramethyluronium hexafluorophosphate) and 6-Cl-HOBt (1-hydroxy-6-chloro-benztriazole) at 4.5 equivalents in DMF (Fisher Scientific, Denver, Colo.) and N-diisopropylethylamine (DIPEA) 10 equivalents (Oakwood Products, Inc., Estill, S.C.) in N-methyl-2-pyrrolidinone (NMP) (Fisher Scientific, Denver, Colo.) with the first and second couplings at room temperature for 30 min each. The deprotection procedure (removal of Fmoc protecting group) was carried out by treatment of the resin with 0.1 M HOBt (1-hydroxybenzotriazole) in DMF with 20% piperidine for 30 min. […] The resin was removed by filtration and peptide was precipitated with ice-cooled ethyl ether on ice for 15 min. Ether was decanted, the peptide was washed twice with ether and redissolved in acetonitrile/water (1:1, with 0.2% TFA) and the solution lyophilized to obtain the crude peptide. • Analytical and Preparative Purification by Reversed-Phase Chromatography: Analytical RP-HPLC: Column, Luna C18 (2), 250×4.6 mm I.D., 5 μm particle size, 100 Å pore size from Phenomenex (Torrance, Calif.). Run conditions: linear AB gradient (1% acetonitrile/min, starting from 2% acetonitrile) at a flow-rate of 1 ml/min, where eluent A is 0.2% aq. TFA and eluent B is 0.18% TFA in acetonitrile; temperature, 30° C. Preparative RP-HPLC: Peptides were dissolved in 0.2% aq. TFA containing 2% acetonitrile to a final concentration of 10 mg/ml. Following filtration through a 0.45 μm Millipore filter and subsequently through a 0.22 μm filter, the peptide solutions were loaded onto the column via multiple 20-ml injections into a 20-ml injection loop at a flow-rate of 10 ml/min. Column, Luna C18 (2), 250×30 mm I.D., 5 um particle size, 100 Å pore size from Phenomenex. Run conditions: 2% acetonitrile/min gradient up to an acetonitrile concentration 10% below that required to elute the peptide during analytical RP-HPLC, then shallow gradient elution (0.05% or 0.1% acetonitrile/min depending on the complexity of impurities near the product of interest on the analytical run of the crude peptide) at a flow-rate of 10 ml/min (same eluents as shown above for analytical RP-HPLC); at room temperature. • Temperature Profiling of Peptides on Reversed-phase HPLC to Measure Dimerization and Oligomerization: Purified peptides were analyzed on an Agilent 1200 series liquid chromatograph for temperature profiling using a Zorbax 300 SB-C8 column (150 mm×2.1 mm I.D.; 5 μm particle size, 300 Å pore size) from Agilent Technologies. […] Temperature profiling was carried out on peptide mixtures run at each temperature in 2° C. increments from 5° C. to 41° C. and 10° C. increments from 5° C. to 75° C. Twenty minutes was allowed between runs for temperature equilibration. • Characterization of Helical Structure: The mean residue molar ellipticities of peptides were determined by circular dichroism (CD) spectroscopy, using a Jasco J-815 spectropolarimeter (Jasco Inc. Easton, Md., USA) at 5° C. under KP buffer (50 mM NaH2PO4/Na2HPO4/100 mM KCl, pH 7.0) as well as in the presence of an α-helix inducing solvent, 2,2,2-trifluoroethanol, TFE, (50 mM NaH2PO4/Na2HPO4/100 mM KCl, pH 7.0 buffer/50% TFE). A 10-fold dilution of an approximately 500 μM stock solution of the peptide analogs was loaded into a 0.1 cm quartz cell and its ellipticity scanned from 195 to 250 nm.

SMILES	fold loss of antimicrobial activity in 25% human sera [1]	MIC 25% human serum [1]	MIC No serum [1]	Aqueous pH 7 [θ]222 [2]	50% TFE [θ]222 [2]	Δ[Θ]222 TFE-aqueous [2]	% Helix Induced [2]	Aqueous pH 7 % Helix [2]	MICGM [3]	MIC 101887 [3]	MIC 961997 [3]	MIC 963618 [3]	MIC 964304 [3]	MIC 977751 [3]	MIC 981653 [3]	MIC 1002956 [3]	MIC 1007660 [3]	MIC 1010282 [3]	MIC 1035166 [3]	MICGM [4]	other results
CC(=O)N[C@H](CCCCN)C(=O)N[C@H](CC(C)C)C(=O)N[C@H](CCN)C(=O)N[C@H](CO)C(=O)N[C@H](CC(C)C)C(=O)N[C@H](CC(C)C)C(=O)N[C@H](CCN)C(=O)N[C@@H](C(=O)N[C@H](CC(C)C)C(=O)N[C@H](CO)C(=O)N[C@H](CCN)C(=O)N[C@H](C)C(=O)N[C@H](C)C(=O)N[C@H](C)C(=O)N[C@H](C)C(=O)N[C@H](C)C(=O)N[C@H](CC(C)C)C(=O)N[C@H](CCN)C(=O)N[C@@H](C(=O)N[C@H](CC(C)C)C(=O)N[C@H](CC(C)C)C(=O)N[C@H](CCN)C(=O)N[C@H](C)C(=O)N[C@H](CC(C)C)C(=O)N[C@H](CO)C(=O)N[C@H](CCN)C(N)=O)[C@H](C)O)[C@H](C)O [D86(K13A/K16A)-(Lys^1-6Dab-1), Ac-KL(Dab)SLL(Dab)TLS(Dab)AAAAAL(Dab)TLL(Dab)ALS(Dab)-amide]	4 fold	3.0 µM (≈ 7.75 µg/mL)	0.8 µM (≈ 2.07 µg/mL)	2,308 mdeg cm^2/(dmol*res)	18,731 mdeg cm^2/(dmol*res)	16,423 mdeg cm^2/(dmol*res)	88%	12%	0.9 µM	0.5 µM (≈ 1.29 µg/mL)	0.8 µM (≈ 2.07 µg/mL)	0.8 µM (≈ 2.07 µg/mL)	1.5 µM (≈ 3.87 µg/mL)	3.1 µM (≈ 8.01 µg/mL)	0.4 µM (≈ 1.03 µg/mL)	0.8 µM (≈ 2.07 µg/mL)	0.8 µM (≈ 2.07 µg/mL)	0.8 µM (≈ 2.07 µg/mL)	0.8 µM (≈ 2.07 µg/mL)	0.9 µM	MIC MB9941 [4]: 1.5 µM (≈ 3.87 µg/mL); MIC MB9949 [4]: 0.8 µM (≈ 2.07 µg/mL); MIC MB9951 [4]: 0.8 µM (≈ 2.07 µg/mL); MIC MB9952 [4]: 0.8 µM (≈ 2.07 µg/mL); MIC MB9953 [4]: 0.8 µM (≈ 2.07 µg/mL); MIC MB9955 [4]: 0.8 µM (≈ 2.07 µg/mL); MIC MB9963 [4]: 0.8 µM (≈ 2.07 µg/mL); HC50 [5]: 20.0 μg/mL and 7.7 μM; HC50 Fold Decrease [5]: >−96.4
CC(=O)N[C@H](CCCCN)C(=O)N[C@H](CC(C)C)C(=O)N[C@H](CN)C(=O)N[C@H](CO)C(=O)N[C@H](CC(C)C)C(=O)N[C@H](CC(C)C)C(=O)N[C@H](CN)C(=O)N[C@@H](C(=O)N[C@H](CC(C)C)C(=O)N[C@H](CO)C(=O)N[C@H](CN)C(=O)N[C@H](C)C(=O)N[C@H](C)C(=O)N[C@H](C)C(=O)N[C@H](C)C(=O)N[C@H](C)C(=O)N[C@H](CC(C)C)C(=O)N[C@H](CN)C(=O)N[C@@H](C(=O)N[C@H](CC(C)C)C(=O)N[C@H](CC(C)C)C(=O)N[C@H](CN)C(=O)N[C@H](C)C(=O)N[C@H](CC(C)C)C(=O)N[C@H](CO)C(=O)N[C@H](CN)C(N)=O)[C@H](C)O)[C@H](C)O [D105(K13A/K16A)-(Lys^1-6Dap-1), Ac-KL(Dap)SLL(Dap)TLS(Dap)AAAAAL(Dap)TLL(Dap)ALS(Dap)-amide]	15 fold	12.5 µM (≈ 31.2 µg/mL)	0.8 µM (≈ 2 µg/mL)	9,577 mdeg cm^2/(dmol*res)	18,038 mdeg cm^2/(dmol*res)	8,461 mdeg cm^2/(dmol*res)	47%	53%	2.0 µM	3.2 µM (≈ 8 µg/mL)	3.2 µM (≈ 8 µg/mL)	1.6 µM (≈ 4 µg/mL)	3.2 µM (≈ 8 µg/mL)	0.8 µM (≈ 2 µg/mL)	1.6 µM (≈ 4 µg/mL)	1.6 µM (≈ 4 µg/mL)	3.2 µM (≈ 8 µg/mL)	1.6 µM (≈ 4 µg/mL)	3.2 µM (≈ 8 µg/mL)	1.3 µM	MIC MB9941 [4]: 1.6 µM (≈ 4 µg/mL); MIC MB9949 [4]: 0.8 µM (≈ 2 µg/mL); MIC MB9951 [4]: 0.8 µM (≈ 2 µg/mL); MIC MB9952 [4]: 1.6 µM (≈ 4 µg/mL); MIC MB9953 [4]: 1.6 µM (≈ 4 µg/mL); MIC MB9955 [4]: 1.6 µM (≈ 4 µg/mL); MIC MB9963 [4]: 1.6 µM (≈ 4 µg/mL); HC50 [5]: 7.2 μg/mL and 2.9 μM; HC50 Fold Decrease [5]: >−395.9
